{
  "source": "patent US20100022626A1",
  "about": "“Modulators of cell migration and methods of identifying same” (priority 2005, published 2010)",
  "test_system": "H1299 cells",
  "test": "Phagokinetic track (PKT) assay of H1299 cells treated with cytoskeletal drugs",
  "assay_type": "cell-based",
  "details": "for Track area: 4 μM Latrunculin A, 2.5 μM Nocodazole or 100 ng/ml PMA, 5 h total; for Track area / Axis ratio / Effective velocity / Major axis / Migration velocity / Minor axis / Perimeter / Roughness / Solidity: mean ± SD; for Effect on cell motility (montage images, FIG. 6): Latrunculin A 4 μM, Nocadazole 2.5 μM, PMA 100 ng/ml; for PKT area compared to control cells: Latrunculin/Nocodazole p=~0, PMA p<0.05; for Axis ratio / Effective velocity / Major axis / Migration velocity / Minor axis / Perimeter / Roughness / Solidity: same treatments",
  "description": "Preparation of 96-wellplates: Glass-bottom 96-well plates (Cat. # 7706-2370, Whatmann, Inc., Clifton, N.J., USA) were treated for 2 hours at room temperature with 50 μl of 10 μg/ml fibronectin solution dissolved in PBS (Fibronectin, F-1141; Sigma Chemical Co., St Louis, Mo., USA). The wells were then washed twice with PBS and coated with 340 nm diameter white polystyrene latex beads (Product no. 2-300; batch no. 1344); Interfacial Dynamics Corporation-Molecular Probes Microspheres Technologies, USA. The bead suspension (3.2 ml) was centrifuged for 5 minutes at 20,800×g, and resuspended in 4 ml PBS by vortex, until all visible bead clumps were dispersed. The sedimentation procedure was then repeated, after which the beads were resuspended in 7 ml PBS, to a final concentration of […]. Aliquots of 70 μl of the bead suspension were added to each well, pre-coated with fibronectin, in the 96-well plate, and incubated at 37° C. for 2 hours, followed by gentle washing (×5 times) with PBS using a plate washer (Colombus Plus, Tecan, Switzerland). Before cells were plated, the PBS was replaced with 50 μl culture medium suitable for the particular cell type used in the assay (see FIG. 1).\nCell preparation for the phagokinetic track assay: MCF7 (ATCC-HTB-22), MDA-MB-231 (ATCC-HBT-26), and B16-F10 (ATCC-CRL-6475) cells were grown in Dulbeco's Modified Eagle's Medium (DMEM). H1299 cells (ATCC-CRL-5803) were grown in RPMI-1640. Both culture media were supplemented with 10% FCS, 2 mM glutamine, 100 international units/ml penicillin and 100 μg/ml streptomycin (Biological Industries, Beit Haemek, Israel), and placed in a 5% CO2 humidified incubator kept at 37° C. For the PKT assay, 200-400 cells (a 50 μl volume) were cultured in each well. Depending on the track dimensions, the number of the plated cells was calibrated to maximize the number of single cell tracks, yet minimize the number of intersecting tracks.\nPhagokinetic track assay: In order to characterize the motile behavior of the various cell lines, MCF7, MDA-MB-231, B16-F10 and H1299 cells were plated on a monolayer of polystyrene beads. All were incubated at 37° C., 5% CO2 for 7 hours, except for the H1299 cells, which were incubated for 5 hours. The first three cell lines were grown in DMEM, and H1299 cells were grown in RPMI 1640 medium, Both media were supplemented with 10% FCS and penicillin/streptomycin antibiotic. At the end of the incubation period, cells were fixed with 3% PFA. Images were taken with a 10× objective, using the autofocus screening microscope system.\nAutomated microscopy: Commercially-available plates display large deviations from a plane, often exceeding 200 μm, which require adjustment of the focal plane for every image. Commonly-used autofocusing procedures, which are based on finding the highest contrast image among a focal series, are slow and not robust, particularly when low-contrast images, such as those yielded by a monolayer of micro-beads, are used. The phagokinetic tracks were therefore recorded using a cell-screening microscope described in detail (Paran et al., Methods in Enzymology, in press). The rapid, automated collection of sharp, in-focus PKT images was aided by a laser autofocus device (Liron et al., 2006, J Microsc 221, 145-51). The laser autofocus device enables precise location of the substrate surface, and guarantees sharp definition of track boundaries.\nThe microscope operating program and the image acquisition software was written (In-house) as an application within the UCSF Priism environment (http://msg.ucsf.edu/ive). The microscope includes a computer-controlled plate scanning stage (Prior, Cambridge UK) that defines the pattern of coverage of the well area by the individual images. For this application, images were taken using a 10×/0.4 objective, and adjacent fields were stitched together, forming a montage of the entire well, or any desired fraction of the well area. […]",
  "data": [
    {"smiles": "C/C1=C/C(=O)O[C@@H]2C[C@@H](CC[C@H](C)/C=C\\C=C\\CC1)O[C@@](O)([C@@H]1CSC(=O)N1)C2", "note": "[Latrunculin A]", "values": [
      {"measurement": "Track area", "value": "5900 ± 3500", "unit": "μm^2"},
      {"measurement": "Effect on cell motility (montage images, FIG. 6)", "setting": "in words", "value": "inhibited cell motility"},
      {"measurement": "Axis ratio compared to control cells", "setting": "in words", "value": "reduced"},
      {"measurement": "Migration velocity compared to control cells", "setting": "in words", "value": "reduced"},
      {"measurement": "Roughness compared to control cells", "setting": "in words", "value": "decreased"},
      {"measurement": "PKT area compared to control cells", "setting": "in words", "value": "reduced"},
      {"measurement": "Axis ratio", "value": "1.5 ± 0.4"},
      {"measurement": "Effective velocity", "value": "8 ± 5", "unit": "μm/h"},
      {"measurement": "Major axis", "value": "121 ± 44", "unit": "μm"},
      {"measurement": "Migration velocity", "value": "10 ± 6", "unit": "μm/h"},
      {"measurement": "Minor axis", "value": "79 ± 19", "unit": "μm"},
      {"measurement": "Perimeter", "value": "380 ± 150", "unit": "μm"},
      {"measurement": "Roughness", "value": "2.0 ± 0.7"},
      {"measurement": "Solidity", "value": "0.9 ± 0.07"}
    ]},
    {"smiles": "COC(=O)Nc1nc2ccc(C(=O)c3cccs3)cc2[nH]1", "note": "[Nocodazole]", "values": [
      {"measurement": "Track area", "value": "6100 ± 3600", "unit": "μm^2"},
      {"measurement": "Effect on cell motility (montage images, FIG. 6)", "setting": "in words", "value": "inhibited cell motility"},
      {"measurement": "Axis ratio compared to control cells", "setting": "in words", "value": "reduced"},
      {"measurement": "Migration velocity compared to control cells", "setting": "in words", "value": "reduced"},
      {"measurement": "Roughness compared to control cells", "setting": "in words", "value": "decreased"},
      {"measurement": "PKT area compared to control cells", "setting": "in words", "value": "reduced"},
      {"measurement": "Axis ratio", "value": "1.6 ± 0.4"},
      {"measurement": "Effective velocity", "value": "14 ± 8", "unit": "μm/h"},
      {"measurement": "Major axis", "value": "123 ± 43", "unit": "μm"},
      {"measurement": "Migration velocity", "value": "17 ± 11", "unit": "μm/h"},
      {"measurement": "Minor axis", "value": "78 ± 18", "unit": "μm"},
      {"measurement": "Perimeter", "value": "385 ± 140", "unit": "μm"},
      {"measurement": "Roughness", "value": "2.1 ± 0.9"},
      {"measurement": "Solidity", "value": "0.9 ± 0.07"}
    ]},
    {"smiles": "CCCCCCCCCCCCCC(=O)O[C@@H]1[C@@H](C)[C@@]2(O)[C@@H](C=C(CO)C[C@]3(O)C(=O)C(C)=C[C@@H]23)[C@@H]2C(C)(C)[C@]12OC(C)=O", "note": "[PMA, Phorbol 12-mirysyate 13-acetate]", "values": [
      {"measurement": "Track area", "value": "14300 ± 9100", "unit": "μm^2"},
      {"measurement": "Effect on cell motility (montage images, FIG. 6)", "setting": "in words", "value": "increase in cell motility"},
      {"measurement": "Axis ratio compared to control cells", "setting": "in words", "value": "did not significantly differ"},
      {"measurement": "Effective velocity compared to control cells", "setting": "in words", "value": "did not significantly differ"},
      {"measurement": "Major axis compared to control cells", "setting": "in words", "value": "did not significantly differ"},
      {"measurement": "Migration velocity compared to control cells", "setting": "in words", "value": "increased"},
      {"measurement": "Minor axis compared to control cells", "setting": "in words", "value": "did not significantly differ"},
      {"measurement": "Roughness compared to control cells", "setting": "in words", "value": "increased"},
      {"measurement": "PKT area compared to control cells", "setting": "in words", "value": "increased"},
      {"measurement": "Solidity compared to control cells", "setting": "in words, p<0.05", "value": "increased"},
      {"measurement": "Axis ratio", "value": "2.1 ± 0.9"},
      {"measurement": "Effective velocity", "value": "46 ± 21", "unit": "μm/h"},
      {"measurement": "Major axis", "value": "220 ± 104", "unit": "μm"},
      {"measurement": "Migration velocity", "value": "59 ± 26", "unit": "μm/h"},
      {"measurement": "Minor axis", "value": "108 ± 42", "unit": "μm"},
      {"measurement": "Perimeter", "value": "695 ± 350", "unit": "μm"},
      {"measurement": "Roughness", "value": "2.9 ± 1.4"},
      {"measurement": "Solidity", "value": "0.8 ± 0.1"}
    ]}
  ]
}
